Measurements: the OPERA property sets (Mansouri et al. 2018)
Values after ≈ are worked out from the molar mass of the structure shown.

Settings: not given

Compound | logP
CCOC(=O)C(=Cc1ccc([N+](=O)[O-])cc1)NC=O | 2.05
CCOC(=O)C(=Cc1ccc2c(c1)OCO2)NC=O | 1.66
CCOC(=O)C(=Cc1ccoc1)NC=O | 2.08
CCOC(=O)C(=Cc1ccc(OC)c(OC)c1)NC=O | 1.97

Second part, the compound after the results:

logP | Compound
2.48 | CCOC(=O)C(=Cc1ccccc1)NC=O
2.51 | CCOC(=O)C(=Cc1cccc(Cl)c1)NC=O
2.22 | CCOC(=O)C(=Cc1ccc(OC)cc1)NC=O
2.65 | CCOC(=O)C(=Cc1ccc(Cl)cc1)NC=O
2.05 | CCOC(=O)C(=Cc1cccc([N+](=O)[O-])c1)NC=O
2.41 | CCOC(=O)C(=Cc1ccccc1Cl)NC=O

Same assay, conditions: 25 °C

solubility | Compound
1790 µM (≈ 374 µg/mL) | CCOC(=O)C(=Cc1ccoc1)NC=O
